{
  "source": "patent US12102637B2",
  "about": "“Pharmaceutical formulations for treating endometriosis, uterine fibroids, polycystic ovary syndrome or adenomyosis” (AbbVie Inc., priority 2017, dated 2024)",
  "assay": "Drug interaction studies: co-administered drug in the presence of elagolix",
  "details": "for direction of the change in AUC of concomitant drug: co-administered with ORILISSA (elagolix)",
  "key": {"[1]": {"details": "Ethinyl estradiol 35 mcg and triphasic norgestimate 0.18/0.215/0.25 mg once daily, elagolix 150 mg once daily, N 21"}, "[2]": {"details": "Digoxin 0.5 mg single dose, elagolix 200 mg twice daily × 10 days, N 11"}, "[3]": {"details": "Midazolam 2 mg single dose, elagolix 150 mg once daily × 13 days, N 11"}, "[4]": {"details": "Midazolam 2 mg single dose, elagolix 300 mg twice daily × 11 days, N 20"}, "[5]": {"details": "Norethindrone 0.35 mg once daily × 112 days, elagolix 150 mg once daily × 56 days, N 32"}, "[6]": {"details": "Rosuvastatin 20 mg once daily, elagolix 300 mg twice daily × 7 days, N 10"}},
  "method": "Drug interaction studies were performed with elagolix and other drugs that are likely to be co-administered and with drugs commonly used as probes for pharmacokinetic interactions.",
  "data": [
    {"smiles": "C#C[C@]1(O)CC[C@H]2[C@@H]3CCC4=CC(=NO)CC[C@@H]4[C@H]3CC[C@@]21CC", "note": "(mixture of isomers) [Norelgestromin]", "values": [
      {"measurement": "AUC Ratio (with elagolix vs medication alone)", "setting": "[1]", "value": 0.85},
      {"measurement": "Cmax Ratio (with elagolix vs medication alone)", "setting": "[1]", "value": 0.87}
    ]},
    {"smiles": "C#CC1(O)CC[C@H]2[C@@H]3CCC4=CC(=O)CC[C@@H]4[C@H]3CC[C@@]21CC", "note": "(mixture of isomers) [Norgestrel]", "values": [
      {"measurement": "AUC Ratio (with elagolix vs medication alone)", "setting": "[1]", "value": 0.92},
      {"measurement": "Cmax Ratio (with elagolix vs medication alone)", "setting": "[1]", "value": 0.89}
    ]},
    {"smiles": "C[C@H]1O[C@@H](O[C@H]2[C@@H](O)C[C@H](O[C@H]3[C@@H](O)C[C@H](O[C@H]4CC[C@@]5(C)[C@H](CC[C@@H]6[C@@H]5C[C@@H](O)[C@]5(C)[C@@H](C7=CC(=O)OC7)CC[C@]65O)C4)O[C@@H]3C)O[C@@H]2C)C[C@H](O)[C@@H]1O", "note": "[Digoxin]", "values": [
      {"measurement": "AUC Ratio (with elagolix vs medication alone)", "setting": "[2]", "value": 1.26},
      {"measurement": "Cmax Ratio (with elagolix vs medication alone)", "setting": "[2]", "value": 1.71},
      {"measurement": "direction of the change in AUC of concomitant drug", "value": "↑ digoxin"}
    ]},
    {"smiles": "C#C[C@]1(O)CC[C@H]2[C@@H]3CCc4cc(O)ccc4[C@H]3CC[C@@]21C", "note": "[Ethinyl Estradiol]", "values": [
      {"measurement": "AUC Ratio (with elagolix vs medication alone)", "setting": "[1]", "value": 1.30},
      {"measurement": "Cmax Ratio (with elagolix vs medication alone)", "setting": "[1]", "value": 1.15}
    ]},
    {"smiles": "Cc1ncc2n1-c1ccc(Cl)cc1C(c1ccccc1F)=NC2", "note": "[Midazolam]", "values": [
      {"measurement": "AUC Ratio (with elagolix vs medication alone)", "setting": "[3]", "value": 0.65},
      {"measurement": "Cmax Ratio (with elagolix vs medication alone)", "setting": "[3]", "value": 0.81},
      {"measurement": "AUC Ratio (with elagolix vs medication alone)", "setting": "[4]", "value": 0.46},
      {"measurement": "Cmax Ratio (with elagolix vs medication alone)", "setting": "[4]", "value": 0.56},
      {"measurement": "direction of the change in AUC of concomitant drug", "value": "↓ midazolam"}
    ]},
    {"smiles": "C#C[C@]1(O)CC[C@H]2[C@@H]3CCC4=CC(=O)CC[C@@H]4[C@H]3CC[C@@]21C", "note": "[Norethindrone]", "values": [
      {"measurement": "AUC Ratio (with elagolix vs medication alone)", "setting": "[5]", "value": 0.88},
      {"measurement": "Cmax Ratio (with elagolix vs medication alone)", "setting": "[5]", "value": 0.95}
    ]},
    {"smiles": "CC(C)c1nc(N(C)S(C)(=O)=O)nc(-c2ccc(F)cc2)c1/C=C/[C@@H](O)C[C@@H](O)CC(=O)O", "note": "[Rosuvastatin]", "values": [
      {"measurement": "AUC Ratio (with elagolix vs medication alone)", "setting": "[6]", "value": 0.60},
      {"measurement": "Cmax Ratio (with elagolix vs medication alone)", "setting": "[6]", "value": 0.99},
      {"measurement": "direction of the change in AUC of concomitant drug", "value": "↓ rosuvastatin"}
    ]}
  ]
}
